The values that follow are results of earlier work, collected in patent US5874104A, “Treatment of systemic fungal infections with phospholipid particles encapsulating polyene antibiotics” (NeXstar Pharmaceuticals, Inc., priority 1995, dated 1999).

For one data set, the system named is renal tubules. The settings on record: mammals.
For data set [1] the following is noted: saline as suspending solution; Jurgens et al.
In a further data set the test system is patients. The settings on record: for Toxicity to cells of the patient: human, in vivo.
The test system of a further data set is host. The note with it: in vivo.

As to `C[C@@H]1[C@H](O)[C@@H](C)/C=C/C=C/C=C/C=C/C=C/C=C/C=C/[C@H](O[C@@H]2O[C@H](C)[C@@H](O)[C@H](N)[C@@H]2O)C[C@@H]2O[C@](O)(C[C@@H](O)C[C@@H](O)[C@H](O)CC[C@@H](O)C[C@@H](O)CC(=O)O[C@H]1C)C[C@H](O)[C@H]2C(=O)O` [amphotericin B], in the data set with renal tubules, the “Toxicity for membrane systems” value is on record as “greater for certain membrane systems, such as the renal tubules”. For the same compound, the Precipitation in saline result in data set [1] was “precipitation”. Also, in the data set with patients (at therapeutic dose levels), the Clinical toxicity result was “acute hemolytic crisis and eventual kidney failure”. Moreover, the “Toxicity to cells of the patient” value in the data set with patients is “acute and chronic toxicity”.
In the case of liposomal Amphotericin B, the “Host toxicity of liposomal drug” value with host was “decreased host toxicity”.
With `C[C@@H]1[C@H](O)[C@@H](C)/C=C/C=C/CC/C=C/C=C/C=C/C=C/C(O[C@H]2O[C@H](C)[C@@H](O)[C@H](N)[C@@H]2O)CC2O[C@](O)(CC(O)C(O)CCC(O)CC(O)CC(O)CC(=O)O[C@H]1C)CC(O)C2C(=O)O` (stereo partly drawn) [nystatin], in the data set on patients, the “Toxicity to cells of the patient” value is “acute and chronic toxicity”.
